Data taken from doi:10.1101/2025.04.25.650653, “Hierarchical small molecule inhibition of MYST acetyltransferases” (bioRxiv, 2025).
Values joined by “and” are separate entries in the source; they are usually repeats but may differ in a detail not shown here. Equal entries are not always repeated.

Key:
H4K16Ac (KAT8) = test: Histone acetylation biomarker western blot, MCF-7; assay type: cell-based; conditions: MCF-7 cells, 24 h, up to 30 μM
Procedure: Target engagement was assessed using the panel of MYST-dependent histone acetylation biomarkers defined above. […] While WM-3835 has been applied to study KAT7, its initial publication alludes to its ability to inhibit both KAT6A/B and KAT7.[14], [43] […] All commercial vendors currently market WM-3835 as a KAT7 inhibitor.
General materials and methods
Total protein on western blots was […]
manufacturer's protocols.
KAT capture and competitive chemoproteomic profiling […]
for 2 hours, then lyophilized.
12 μL triethylamine. […] The beads were then magnetically separated […]
distinguish between tightly grouped and diffuse clusters, compactness was quantified by calculating the average pairwise Euclidean distance between all points within each cluster. Clusters with lower average

NCI-60 cell line panel = test: NCI-60 cell line screen, sulforhodamine B growth inhibition; assay type: cell-based, human; conditions: 48 h
H3K14Ac (KAT7) = test: Histone biomarker bottom-up LC-MS/MS, MCF-7; assay type: cell-based; conditions: for Ratio, H3_9_17 K9me1K14ac / Ratio, H3_9_17 K9me2K14ac / Ratio, H3_9_17 K14ac: Replicates 1-3
BT-549 cells = test: ATP-based viability assay (CellTiter-Glo); assay type: cell-based; conditions: Homo sapiens; BT-549, ATP-Glo assay, 72 h, n=4
Text: Figure 6. […] (C) Dependence of breast cancer cell lines on non-MYST KATs (EP300, CREBBP), MYST KATs (KAT6A, KAT6B, KAT7, KAT8, KAT5), and a MYST KAT complex member (BRPF1) derived from on DepMap CRISPR screening data. BT-549 is highlighted in orange. Lower CERES score indicates a greater dependence of the cell line on the specified gene. […] Data is representiative of n=2 biological replicates.
Analysis of DepMap-derived CRISPR screening data supports the notion that while breast cancer models vary widely in their requirement for EP300 and CREBBP, BT-549 appears to a fairly independent line. […]
(0.01, 0.1, 1, 10, 100 μM) for 48 hours and analyzed by sulforhodamine B assay for growth inhibition as previously described.12-14 o validate the NCI-60 relative activity trends using an orthogonal method, we […]
0.94, 0.47, 0.23, 0 μM) for 96 hours. Experiments were performed in quadruplicate, and cell viability was measured using CellTiter-Glo® Luminescent Cell Viability Assay (Promega, G7572) according to the manufacturer's instructions. Luminescence signals were recorded on a BioTek Synergy 2 plate reader, and results were normalized to vehicle-treated controls (set to 100%). Half-maximal inhibition values (IC₅₀) were determined from nonlinear regression analysis of dose-response curves using GraphPad Prism 9. […]

[1] = KAT marker KAT7, PF-9363 0.1 v 30
[2] = KAT marker KAT7, PF-9363 (0.1 mM)
[3] = KAT marker KAT7, PF-9363 (30 mM)

Compound: COc1cccc(OC)c1S(=O)(=O)Nc1noc2cc(Cn3cccn3)cc(OC)c12 [PF-9363]
- inhibition of KAT8 (H4K16Ac) (H4K16Ac (KAT8)): able to inhibit KAT8-catalyzed H4K16Ac
- GI50 (NCI-60 cell line panel; Homo sapiens, most cell lines of the NCI-60 panel, read-out: half-maximal growth inhibition (GI50)): 10 to 100 µM
- tolerance of concentrations expected to primarily effect KAT6 and KAT7 (NCI-60 cell line panel; ≤ 1 μM): generally well-tolerated
- IC50 (H3K14Ac (KAT7); Homo sapiens, MCF7, MCF-7 cells, 24 h): ~1 µM
- Fold-change 0.1 v 30, H3_9_17 K9me1K14ac (H3K14Ac (KAT7); [1]): 5.55
- Fold-change 0.1 v 30, H3_9_17 K9me2K14ac (H3K14Ac (KAT7); [1]): 4.54
- Fold-change 0.1 v 30, H3_9_17 K14ac (H3K14Ac (KAT7); [1]): 4.58
- Average ratio, H3_9_17 K9me1K14ac (H3K14Ac (KAT7); [2]): 0.0218
- Average ratio, H3_9_17 K9me2K14ac (H3K14Ac (KAT7); [2]): 0.1048
- Average ratio, H3_9_17 K14ac (H3K14Ac (KAT7); [2]): 0.0358
- Average ratio, H3_9_17 K9me1K14ac (H3K14Ac (KAT7); [3]): 0.0039
- Average ratio, H3_9_17 K9me2K14ac (H3K14Ac (KAT7); [3]): 0.0231
- Average ratio, H3_9_17 K14ac (H3K14Ac (KAT7); [3]): 0.0078
- Ratio, H3_9_17 K9me1K14ac (H3K14Ac (KAT7); KAT marker KAT7, dose 0.1): 0.01996 and 0.02377 and 0.02171
- Ratio, H3_9_17 K9me2K14ac (H3K14Ac (KAT7); KAT marker KAT7, dose 0.1): 0.087 and 0.123 and 0.1045
- Ratio, H3_9_17 K14ac (H3K14Ac (KAT7); KAT marker KAT7, dose 0.1): 0.03031 and 0.04488 and 0.03226
- Ratio, H3_9_17 K9me1K14ac (H3K14Ac (KAT7); KAT marker KAT7, dose 1): 0.01133 and 0.012 and 0.01281
- Ratio, H3_9_17 K9me2K14ac (H3K14Ac (KAT7); KAT marker KAT7, dose 1): 0.0545 and 0.07102 and 0.04882
- Ratio, H3_9_17 K14ac (H3K14Ac (KAT7); KAT marker KAT7, dose 1): 0.02498 and 0.02856 and 0.02464
- Ratio, H3_9_17 K9me1K14ac (H3K14Ac (KAT7); KAT marker KAT7, dose 10): 0.004127 and 0.006046 and 0.005821
- Ratio, H3_9_17 K9me2K14ac (H3K14Ac (KAT7); KAT marker KAT7, dose 10): 0.02988 and 0.02204 and 0.03567
- Ratio, H3_9_17 K14ac (H3K14Ac (KAT7); KAT marker KAT7, dose 10): 0.01535 and 0.01122 and 0.01409
- Ratio, H3_9_17 K9me1K14ac (H3K14Ac (KAT7); KAT marker KAT7, dose 30): 0.004797 and 0.003603 and 0.003398
- Ratio, H3_9_17 K9me2K14ac (H3K14Ac (KAT7); KAT marker KAT7, dose 30): 0.01983 and 0.02491 and 0.02445
- Ratio, H3_9_17 K14ac (H3K14Ac (KAT7); KAT marker KAT7, dose 30): 0.006424 and 0.008372 and 0.008647
- GI50 (BT-549 cells): ~7 µM
